Reference: PMC6696115, “Characterization of Antimicrobial, Antioxidant, and Leishmanicidal Activities of Schiff Base Derivatives of 4-Aminoantipyrine” (Molecules, 2019)
In brackets after ≈: the same amount, converted by molar mass.

Tests used:
[1] = tested on: Aspergillus niger ATCC 6275; test: antimicrobial serial microdilution, A. niger; type: cell-based; details: Aspergillus niger, ATCC6275; serial microdilution, 96-well plates, 35 °C, 48 h, max 2% DMSO
Method: (§1) The in vitro antifungal and antimicrobial activities were determined by testing the Schiff bases against the fungi Saccharomyces cerevisiae, Candida albicans, and Aspergillus niger and the bacteria Staphylococcus aureus, Enterococcus faecalis (Gram-positive), Pseudomonas aeruginosa, and Escherichia coli (Gram-negative).
(§2) The bacterial inoculum was prepared by emulsifying overnight colonies from an agar medium in broth (Mueller–Hinton broth). The suspensions were adjusted to a final organism density of 5 × 10^5 colony former units (cfu)/mL. […] The emulsifying of A. niger cultures was done by pouring 5 mL of saline and 0.1% of polysorbate 80 over the Petri dishes. Then, 100 µL of this suspension were diluted in 5 mL of saline and adjusted to an optical density of 0.1 at 530 nm. For S. cerevisiae, fresh exponential YPAD (yeast extract 1%, peptone 2%, adenine 0.004%, […]) cultures were adjusted to an optical density of 0.5 at 600 nm, and then diluted to the equivalent of 1 × 10^4 cells/mL (10^−3 dilution). Stock solutions of Schiff bases were prepared by dissolving them in DMSO at 10 mg/mL. […] The range of concentrations used was empirically selected for each organisms and the Schiff base. Drug sensitivities were assayed by serial dilutions in 96-well plates as previously described. A row with media and cells but without drug was the positive control. The blank was done by preparing a row with media and drugs, but without cells. Plates were fitted with a tight lid before incubation to prevent desiccation. […] The minimum bactericidal concentration (MBC) and fungicidal concentration (MFC) were determined by spreading 100 µL of culture from each well onto a plate (Mueller–Hinton agar for bacteria, Sabouraud dextrose agar for fungi except S. cerevisiae, and YPAD for S. cerevisiae).

[2] = tested on: Staphylococcus aureus ATCC 29213; test: antimicrobial serial microdilution, S. aureus; type: cell-based; details: Staphylococcus aureus, ATCC29213; serial microdilution, 37 °C, 24 h
Method: as §1, §2

P. aeruginosa ATCC 27853 = test: antimicrobial serial microdilution, P. aeruginosa; type: cell-based; details: Pseudomonas aeruginosa, ATCC27853, 37 °C, 24 h
Method: as §1, §2

[3] = tested on: promastigotes from L. mexicana (M379); test: leishmanicidal activity, MTT colorimetric assay; type: cell-based; details: Leishmania mexicana, 48 h exposure, 1% DMSO
Method: Leishmanicidal activities of all Schiff bases were evaluated by measuring promastigote mitochondrial activity using MTT colorimetric assay as described previously. […] The medium was renewed every four days. Parasite density was determined in a Neubauer chamber.
Into each well of a 96-well cell culture dish was dispensed 1 × 10^6 parasites. A stock solution of each of the Schiff Base was prepared in DMSO, and serial dilutions were added to the parasite suspension, keeping the solvent concentration at 1%. The final volume was 100 µL for each well and triplicate conditions were carried out. Pentamidine treatment (100 µg/mL) and untreated parasites were used as positive control and negative control, respectively. After exposure to the compounds for 48 h in culture medium, 10 µL of a solution of 5 mg/mL MTT dissolved in PBS was added to each well. […] Later, the plate was centrifuged at 4400 rpm for 10 min and the culture medium was then aspirated. Next, 100 µL of DMSO were added into each well to solubilize the formazan and the plate was shaken for 5 min. The colored formazan salt was measured by recording changes in absorbance at 570 nm using a microplate reader, a BioTek Synergy HT spectrophotometer. A reference wavelength of 630 nm was used to subtract background. Optical densities were analyzed as the quantity of formazan is directly proportional to the number of viable parasites. Data were analyzed with the statistical software GraphPad Prism.

[4] = tested on: S. cerevisiae sod1 mutant (BY4741); test: growth inhibition (OD600) of sod1 mutant yeast, oxidative effect; type: cell-based, Saccharomyces cerevisiae
Method: Next, we wanted to evaluate the oxidative activity. To do this, drop test assays were performed with wild-type (W303 and BY4741 backgrounds) and sod1 (BY4741 background) yeast cells in the presence of 200 µg/mL of the analyzed Schiff bases (Figure 3). The SOD1 gene encodes superoxide dismutase 1, an enzyme with a major role in detoxifying ROS species generated during metabolism or because of environmental exposure. sod1 mutant cells are unprotected against oxidative agents, decreasing survival in their presence.
(A) Drop test of serial dilution of yeast cell cultures (wild type from genetic background W303, wild type from genetic background BY4741, and sod1 mutant from genetic background BY4741) exposed to Schiff bases at 200 µg/mL. A control without drug and with 2% DMSO are included.
as §2

How did the MIC [1] turn out when Cc1c(N=Cc2ccccc2O)c(=O)n(-c2ccccc2)n1C [Compound 3b, 4-(2-Hydroxybenzylideneamino)-1,5-dimethyl-2-phenyl-1H-pyrazol-3(2H)-one] was run?
Its MIC is greater than 200 µg/mL.

What about the MIC [2] of the same compound?
Its MIC is greater than 200 µg/mL.

And the MIC (P. aeruginosa ATCC 27853)?
Its MIC is greater than 200 µg/mL.

What about the IC50 [3] of the same compound?
The IC50 was greater than 200 µM.

And the IC50 ([4]; Saccharomyces cerevisiae, read-out: IC50 sod1)?
Its IC50 is 101 µg/mL (≈ 328 µM).

What about the “NIC sod1” value ([4]; sod1 mutant BY4741, unit not given) of the same compound?
Its value is 53.3 ± 0.1.

What about the “MIC sod1” value ([4]; sod1 mutant BY4741, unit not given, in µg/mL) of the same compound?
The value was 164.1 ± 0.1.
